The record followed here is ChEMBL document CHEMBL3351687, “Crystallographic and receptor binding characterization of Plasmodium falciparum macrophage migration inhibitory factor complexed to two potent inhibitors” (J Med Chem, 2014).

Active and inactive are the calls of the source. The rule behind the calls is not given here.

One assay deals with Plasmodium falciparum. Briefly: Inhibition of purified full-length biotinylated-Plasmodium falciparum macrophage migration inhibitory factor binding to human sCD74 at 2.5 uM after 45 mins.
The target of assay [1] is T1, Macrophage migration inhibitory factor (Homo sapiens) (UniProt P14174).
T1 sequence (whole entry): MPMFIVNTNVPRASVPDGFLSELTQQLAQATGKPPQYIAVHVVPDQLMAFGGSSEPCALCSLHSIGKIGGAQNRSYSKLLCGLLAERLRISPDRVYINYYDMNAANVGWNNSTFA
Briefly: Inhibition of recombinant human macrophage migration inhibitory factor binding to human ectodomain CD74 at 0.1 to 2.5 uM.

For `Cc1cc(Oc2cccc(O)c2)cc(-c2ccccc2)n1`, the inhibition in the assay on Plasmodium falciparum was 25%. Besides, the inhibition entry in assay [1] is “inactive”.
In the assay with Plasmodium falciparum, `COc1ccc(-c2cc(Oc3cc(C)cc(OC)c3)cc(C)n2)cc1` showed an inhibition of 75%. For the same compound, the inhibition entry in assay [1] was “inactive”.
